Assay [1] has as its system HEK293. In words: EBV LMP1 TES2 canonical NF-kB signalling blockers – cell-based, HEK293, luciferase, cherry-pick, dose response (AID 588343). In kind it is functional. The note with it: Homo sapiens.
The target in assay [2] is T1, Interleukin-8 (Homo sapiens, UniProt P10145).
T1 sequence (P10145 whole entry): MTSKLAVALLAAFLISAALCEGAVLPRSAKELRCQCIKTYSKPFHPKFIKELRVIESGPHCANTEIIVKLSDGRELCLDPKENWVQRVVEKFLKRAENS
The assay is described as follows: Dose Response confirmation of uHTS small molecule hits for cystic fibrosis induced NFkb Inhibitors in a TNFa-induced IL8 counterscreen. The format is functional. To be noted: read-out: IC50_Mean.

Assay [3] addresses T1, Interleukin-8. In words: Dose Response confirmation of uHTS small molecule hits for cystic fibrosis induced NFkb Inhibitors in a PAF-induced IL8 counterscreen. In kind it is functional. To be noted: read-out: IC50_Mean.
The nature of assay [4]: reduced cellular PGC1a acetyl-lysine signal – cell-based, cherry-picked samples, dose response (AID 720514).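 Further: potency may reflect raised or lowered acetylation signal.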 The format is functional.
Assay [5] in a line: HeLa cell viability loss – 24 h, dry powder, set 2, cytotoxicity control, dose response (AID 651774). In kind it is functional, cell-based.
Assay [6] can be described thus: bead-based luminescence quenchers, dual-tagged ARNT – biochemical, AlphaScreen, cherry-pick, artefact control for ARNT-TACC3 interaction inhibitor project, dose response (AID 651705).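 Further: AlphaScreen bead proximity signal that flags compounds interfering with the detection technology; potency reflects signal decrease which marks the compound as an assay artifact.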 The format is functional.
Assay [7] addresses ADP-ribosylation factor GTPase-activating protein 1 (Rattus norvegicus, UniProt Q62848). The assay is described as follows: Fluorescence polarization-based biochemical high throughput dose response screening assay to identify inhibitors of ADP-ribosylation factor GTPase activating protein 1 (ARFGAP1). In kind it is functional.
The target in assay [8] is Arf-GAP with SH3 domain, ANK repeat and PH domain-containing protein 1 (Homo sapiens, UniProt Q9ULH1). In kind it is functional.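 Further: biochemical fluorescence polarization dose–response screen measuring inhibition of ASAP1; ASAP1 GAP domain stimulating GTP hydrolysis by truncated human ARF1.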
In assay [9] the test system is HeLa. The assay is described as follows: viability loss in HeLa cells – cell-based, ATP luminescence, cherry-pick samples, cytotoxicity control, dose response (AID 687004). The format is functional. The note with it: Homo sapiens.
The nature of assay [10]: Counterscreen for […] of the human trace amine associated receptor 1 (TAAR1): Fluorescence-based cell-based high throughput dose response assay to identify nonselective Ga16 agonists. The format is functional.
The target of assay [11] is T2, Trace amine-associated receptor 1 (Homo sapiens, UniProt Q96RJ0).
T2 sequence (Q96RJ0 whole entry): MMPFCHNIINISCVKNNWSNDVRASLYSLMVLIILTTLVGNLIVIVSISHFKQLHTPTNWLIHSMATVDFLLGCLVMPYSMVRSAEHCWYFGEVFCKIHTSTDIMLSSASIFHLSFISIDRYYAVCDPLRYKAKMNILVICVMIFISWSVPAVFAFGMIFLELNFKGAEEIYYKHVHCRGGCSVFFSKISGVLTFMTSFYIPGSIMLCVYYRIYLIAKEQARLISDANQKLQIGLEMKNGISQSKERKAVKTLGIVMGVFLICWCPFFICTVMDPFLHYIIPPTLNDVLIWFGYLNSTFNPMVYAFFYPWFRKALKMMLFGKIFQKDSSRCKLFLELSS
In words: Fluorescence-based cell-based high throughput dose response assay to identify antagonists of the human trace amine associated receptor 1 (TAAR1). The format is functional.

Assay [12] in a line: Counterscreen for antagonists of the human trace amine associated receptor 1 (hTAAR1): Fluorescence-based cell-based high throughput dose response assay to identify nonselective Ga16 antagonists. The format is functional.
Assay [13] addresses T2, Trace amine-associated receptor 1. In words: Counterscreen for antagonists of the human trace amine associated receptor 1 (hTAAR1): Fluorescence-based cell-based high throughput dose response assay to identify TAAR1 Agonists. The format is functional.
In assay [14] the target is Mu-type opioid receptor (Homo sapiens, UniProt P35372). The format is functional, cell-based.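 Further: U2OS cells with beta-arrestin recruitment to OPRM1 by beta-gal complementation.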
In assay [15] the target is 5-hydroxytryptamine receptor 2A (Mus musculus, UniProt P35363). In kind it is functional, cell-based.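 Further: CHO-K1 cells with tagged receptor and beta-arrestin; agonist potency measured as compound-induced activation of the receptor.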
For assay [16], the target named is Matrix metalloproteinase-14 (Homo sapiens, UniProt P50281). The assay is described as follows: Dose Response confirmation of uHTS hits for a small molecule inhibitors of MT1-MMP activation in a fluorescence assay set 1. In kind it is functional.

The record followed here is ChEMBL document CHEMBL1201862, “PubChem BioAssay data set” (2004).

Structures are written as SMILES. Active and inactive are the calls of the source. Some results are limits rather than exact numbers.

Chain of ADP-ribosylation factor GTPase-activating protein 1 (Q62848 whole entry, the tested form may be a part): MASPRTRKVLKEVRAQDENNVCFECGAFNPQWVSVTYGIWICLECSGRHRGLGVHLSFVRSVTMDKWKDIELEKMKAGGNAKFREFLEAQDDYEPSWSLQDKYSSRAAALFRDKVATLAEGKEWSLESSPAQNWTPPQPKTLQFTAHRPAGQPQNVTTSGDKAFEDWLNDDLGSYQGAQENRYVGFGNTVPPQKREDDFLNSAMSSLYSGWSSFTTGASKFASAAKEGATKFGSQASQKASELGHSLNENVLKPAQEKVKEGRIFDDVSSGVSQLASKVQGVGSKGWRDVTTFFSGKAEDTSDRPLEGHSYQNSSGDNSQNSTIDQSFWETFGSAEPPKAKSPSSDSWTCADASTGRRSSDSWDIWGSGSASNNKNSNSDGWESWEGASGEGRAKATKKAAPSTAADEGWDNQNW
Chain of Mu-type opioid receptor (P35372 whole entry): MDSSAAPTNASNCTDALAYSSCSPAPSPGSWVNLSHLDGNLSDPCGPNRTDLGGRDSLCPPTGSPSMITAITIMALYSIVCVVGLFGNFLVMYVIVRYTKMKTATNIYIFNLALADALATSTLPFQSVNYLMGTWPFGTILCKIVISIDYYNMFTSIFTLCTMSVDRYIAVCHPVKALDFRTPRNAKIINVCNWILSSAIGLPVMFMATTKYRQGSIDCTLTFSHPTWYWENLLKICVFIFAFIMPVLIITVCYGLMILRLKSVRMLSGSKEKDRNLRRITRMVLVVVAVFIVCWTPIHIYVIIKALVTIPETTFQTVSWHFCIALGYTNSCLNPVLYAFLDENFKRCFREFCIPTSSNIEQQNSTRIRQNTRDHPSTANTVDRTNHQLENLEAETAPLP
Chain of Arf-GAP with SH3 domain, ANK repeat and PH domain-containing protein 1 (Q9ULH1 whole entry, the tested form may be a part): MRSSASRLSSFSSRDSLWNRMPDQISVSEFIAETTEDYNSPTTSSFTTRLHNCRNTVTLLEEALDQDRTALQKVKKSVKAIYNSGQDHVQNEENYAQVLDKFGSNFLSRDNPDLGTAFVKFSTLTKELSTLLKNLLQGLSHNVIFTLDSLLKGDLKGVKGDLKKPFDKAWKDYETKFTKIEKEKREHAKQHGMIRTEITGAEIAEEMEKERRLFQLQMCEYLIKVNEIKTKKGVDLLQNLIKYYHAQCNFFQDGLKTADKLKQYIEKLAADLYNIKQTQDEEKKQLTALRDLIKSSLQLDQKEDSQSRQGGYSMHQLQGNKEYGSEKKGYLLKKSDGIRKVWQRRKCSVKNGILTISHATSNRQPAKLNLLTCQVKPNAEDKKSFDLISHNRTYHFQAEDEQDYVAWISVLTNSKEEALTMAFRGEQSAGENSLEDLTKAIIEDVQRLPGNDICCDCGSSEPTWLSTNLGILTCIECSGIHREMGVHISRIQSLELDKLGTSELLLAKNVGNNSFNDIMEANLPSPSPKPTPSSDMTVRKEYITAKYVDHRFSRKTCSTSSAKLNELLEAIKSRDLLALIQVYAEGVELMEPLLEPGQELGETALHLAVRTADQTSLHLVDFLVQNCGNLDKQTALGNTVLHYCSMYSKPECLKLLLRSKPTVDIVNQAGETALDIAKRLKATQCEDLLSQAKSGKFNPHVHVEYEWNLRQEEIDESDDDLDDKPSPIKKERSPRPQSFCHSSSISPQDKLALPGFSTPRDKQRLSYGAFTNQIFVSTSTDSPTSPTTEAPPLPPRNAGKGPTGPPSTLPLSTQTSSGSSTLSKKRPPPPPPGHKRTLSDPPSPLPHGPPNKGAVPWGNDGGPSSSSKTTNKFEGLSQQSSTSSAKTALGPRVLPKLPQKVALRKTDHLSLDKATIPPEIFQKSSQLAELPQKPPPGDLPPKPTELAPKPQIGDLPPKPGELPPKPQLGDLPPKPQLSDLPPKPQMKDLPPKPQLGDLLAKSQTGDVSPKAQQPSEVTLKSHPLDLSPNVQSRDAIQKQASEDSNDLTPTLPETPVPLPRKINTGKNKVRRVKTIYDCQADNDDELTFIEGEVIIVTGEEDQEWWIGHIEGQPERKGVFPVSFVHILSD
Chain of 5-hydroxytryptamine receptor 2A (P35363 whole entry): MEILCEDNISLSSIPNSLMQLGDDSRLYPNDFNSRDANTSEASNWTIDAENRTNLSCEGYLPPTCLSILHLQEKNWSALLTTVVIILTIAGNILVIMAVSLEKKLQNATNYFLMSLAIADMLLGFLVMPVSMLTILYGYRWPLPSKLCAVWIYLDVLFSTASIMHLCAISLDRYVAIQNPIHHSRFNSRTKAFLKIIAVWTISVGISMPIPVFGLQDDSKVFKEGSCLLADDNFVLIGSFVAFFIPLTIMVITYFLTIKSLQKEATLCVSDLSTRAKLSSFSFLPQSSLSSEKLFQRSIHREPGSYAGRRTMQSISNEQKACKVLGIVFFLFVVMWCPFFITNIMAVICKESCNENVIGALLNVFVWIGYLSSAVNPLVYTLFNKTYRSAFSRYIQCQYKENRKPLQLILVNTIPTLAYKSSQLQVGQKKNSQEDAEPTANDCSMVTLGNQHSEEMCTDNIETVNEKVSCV

`CCCN(CC)c1[nH]cnc2nncc1-2`: the figures for the AC50 in [1] and in [4] were 9.96 µM (active) and 3.26 µM (active), respectively. Besides, the IC50 in assay [2] was 42.3 µM (inactive); in assay [3] it was 9.12 µM (active).
`c1ccc(-c2ccc(CCNC3CCCC3)cc2)cc1`: the AC50 in assay [5] was > 70 µM (inactive).
`COCCOC(=O)c1c(N)n(Cc2ccco2)c2nc3ccccc3nc12`: in assay [6], the half-maximal activity concentration (AC50) was 130 µM (active).
In the case of `COc1cc(/C=N\NC(=O)c2ccc(C)nc2)ccc1OC(=O)c1ccc2c(c1)OCO2`, the IC50 in assay [7] was 21 µM (inactive); in assay [8] it was 24.8 µM (inactive).
With `C[C@H](CO)N1C[C@H](C)[C@H](CN(C)Cc2ccccc2)Oc2cc(C#Cc3ccccn3)ccc2S1(=O)=O`, the AC50 in assay [9] was > 52 µM (inactive).
Consider `COC(=O)c1oc2c(c1C)C1(CCC2)SCCS1`, for which the EC50 in assay [10] and in assay [13] was > 29.9 µM (inactive) throughout. Moreover, the IC50 is 1.09 µM (active) in assay [11] and > 29.9 µM (inactive) in [12].
Consider `CCC(=O)c1ccc(OCC(O)CN2CCN(c3ccccn3)CC2)cc1` (stereo unspecified), for which the EC50 was 92.5 µM (inactive) in assay [14] and 0.306 µM (active) in assay [15].
For `Cc1ccc(S(=O)(=O)/N=C2\C=C(NS(=O)(=O)c3ccccc3)C(=O)c3ccccc32)c(C)c1`, the IC50 in assay [16] is 14 µM (active).
